Assay results reported in US20080112933A1 (priority 2004, published 2008).

Columns and labels:
[1] = tested on: bone marrow MNCs; assay: Long-term culture-initiating cell (LTC-IC) assay of treated bone marrow MNCs; settings: treated bone marrow mononuclear cells; FIG. 4; taken as showing no myelotoxicity
[2] = target: Gαs (Mus musculus, UniProt P63094); assay: Gαs activity measured by cAMP production in bone marrow mononuclear cells; settings: bone marrow mononuclear cells treated with the agent; FIG. 3
Sequence of Gαs (P63094 whole entry): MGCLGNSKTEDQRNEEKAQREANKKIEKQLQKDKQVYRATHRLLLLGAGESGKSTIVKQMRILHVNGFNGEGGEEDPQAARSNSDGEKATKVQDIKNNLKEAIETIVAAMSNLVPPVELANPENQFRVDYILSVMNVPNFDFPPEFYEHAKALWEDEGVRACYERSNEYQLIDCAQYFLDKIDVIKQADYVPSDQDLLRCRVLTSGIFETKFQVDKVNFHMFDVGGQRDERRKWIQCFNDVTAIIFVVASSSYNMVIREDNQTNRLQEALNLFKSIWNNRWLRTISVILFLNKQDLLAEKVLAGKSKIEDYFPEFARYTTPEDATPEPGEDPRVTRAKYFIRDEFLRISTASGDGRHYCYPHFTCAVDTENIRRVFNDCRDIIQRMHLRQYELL

[3] = tested on: bone marrow mononuclear cells; assay: CFU-C assay of treated bone marrow mononuclear cells; settings: taken as showing no myelotoxicity
[4] = tested on: bone marrow MNCs; assay: Competitive repopulation assay with treated bone marrow MNCs; assay type: in vivo, mouse; settings: treated CD45.1 BM MNCs injected with equal number of CD45.2 BM MNCs into lethally irradiated CD45.2 mice; flow cytometry eight weeks after injection; FIG. 8
Method: In these experiments CD45.1 cells were either treated with suramin or untreated. They were then injected with an equal number of CD45.2 whole BM MNCs into lethally irradiated CD45.2 mice. Eight weeks following injection the contribution to bone marrow hematopoiesis of the untreated or treated cells was analyzed by flow cytometry.

[5] = tested on: hematopoietic progenitor cells; settings: mouse, in vivo
[6] = tested on: hematopoietic progenitor cells; settings: mouse, in vivo; remark: listed apart in the source

Row | Molecule | ability of the cells to perform in LTC-IC assay [1] | cAMP production (indicative of Gαs signaling) [2] | ability of the cells to perform in CFU-C assay [3] | ability to engraft and establish hematopoiesis in the bone marrow [4] | increase in the number of cells homing to the bone marrow [5] | engraftment potential: contribution in competitive transplants [6]
1 | Cc1ccc(C(=O)Nc2ccc(S(=O)(=O)O)c3cc(S(=O)(=O)O)cc(S(=O)(=O)O)c23)cc1NC(=O)c1cccc(NC(=O)Nc2cccc(C(=O)Nc3cc(C(=O)Nc4ccc(S(=O)(=O)O)c5cc(S(=O)(=O)O)cc(S(=O)(=O)O)c45)ccc3C)c2)c1 [suramin] | did not result in any impairment | reduction in the cAMP production | did not result in any impairment | reduction in their ability to engraft and establish hematopoiesis in the bone marrow | – | –
2 | cholera toxin | – | – | – | – | ~75% | enhanced contribution in competitive transplants
